In patent publication US8546440B2, “Substituted bicyclic imidazole derivatives as gamma secretase modulators” (Janssen Pharmaceuticals, Inc., priority 2008, dated 2013):
One block for each molecule: values may come before it.

How the values were obtained:
[1] = system: Aβtotal; test: Screening for γ-secretase-modulating activity, Method 1: Aβtotal sandwich ELISA in supernatant of SKNBE2 cells carrying APP 695 wild type (Tables 12a, 12b); format: cell-based; details: Homo sapiens
How it was run: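 Aβtotal in conditioned medium was measured by 6E10/biotin-4G8 sandwich ELISA with fluorogenic peroxidase read-out. Cells were wild-type APP 695 SKNBE2, treated 18 hours in glutamine-supplemented Ultraculture. IC50 came from 4-parameter fits of inhibition, or percent of control, against concentration; toxicity was checked by WST-1.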

[2] = system: Aβ42; test: Screening for γ-secretase-modulating activity, Method 1: Aβ42 sandwich ELISA in supernatant of SKNBE2 cells carrying APP 695 wild type (Tables 12a, 12b); format: cell-based; details: Homo sapiens
How it was run: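 Aβ42 levels in the supernatant were measured by ELISA with 450 nm colorimetric read-out after 18 h compound exposure of wild-type APP695 SKNBE2 cells plated one day earlier. IC50 was fitted with a 4-parameter model, either with fixed top/bottom and a Hill slope of 1, or as averaged values from % of vehicle control; WST-1 was used to flag cytotoxicity.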

[3] = system: Aβtotal; test: Demonstration of in vivo efficacy: Aβtotal lowering in brain after single oral dose (Table 13); details: mouse brain soluble fraction, mean, compared to untreated animals
Source text: (§1) To determine whether acute administration of an Aβ42 lowering agent would reduce Aβ42 levels in vivo, non-transgenic rodents, e.g. mice or rats were used. Alternatively, two to three month old Tg2576 mice expressing APP695 containing the “Swedish” variant can be used or a transgenic mouse model developed by Dr. Fred Van Leuven (K. U. Leuven, Belgium) and co-workers, with neuron-specific expression of a clinical mutant of the human amyloid precursor protein [V717I] (Moechars et al., 1999 J. Biol. Chem. 274, 6483). Young transgenic mice have high levels of Aβ in the brain but no detectable Aβ deposition. At approximately 6-8 months of age, the transgenic mice start to display spontaneous, progressive accumulation of β-amyloid (Aβ) in the brain, eventually resulting in amyloid plaques within the subiculum, hippocampus and cortex. Animals treated with the Aβ42 lowering agent were examined and compared to those untreated or treated with vehicle and brain levels of soluble Aβ42 and total Aβ would be quantitated by standard techniques, for example, using ELISA. Treatment periods varied from hours to days and were adjusted based on the results of the Aβ42 lowering once a time course of onset of effect could be established.
(§2) A typical protocol for measuring Aβ42 lowering in vivo is shown but it is only one of many variations that could be used to optimize the levels of detectable Aβ. For example, Aβ42 lowering compounds were formulated in 20% of Captisol® (a sulfobutyl ether of β-cyclodextrin) in water or 20% hydroxypropyl β cyclodextrin. The Aβ42 lowering agents were administered as a single oral dose or by any acceptable route of administration to overnight fasted animals. After four hours, the animals were sacrificed and Aβ42 levels were analysed.
(§3) Blood was collected by decapitation and exsanguinations in EDTA-treated collection tubes. Blood was centrifuged at 1900 g for 10 minutes at 4° C. and the plasma recovered and flash frozen for later analysis. The brain was removed from the cranium and hindbrain. The cerebellum was removed and the left and right hemisphere were separated. The left hemisphere was stored at −18° C. for quantitative analysis of test compound levels. The right hemisphere was rinsed with phosphate-buffered saline (PBS) buffer and immediately frozen on dry ice and stored at −80° C. until homogenization for biochemical assays.
Mouse brains were resuspended in 10 volumes of 0.4% DEA (diethylamine)/50 mM NaCl pH 10 (for non-transgenic animals) or 0.1% 3-[3-cholamidopropyl)-dimethyl-ammonio]-1-propanesulfonate (CHAPS) in tris buffered saline (TBS) (for transgenic animals) containing protease inhibitors (Roche-11873580001 or 04693159001) per gram of tissue, e.g. for 0.158 g brain, add 1.58 ml of 0.4% DEA. All samples were sonicated for 30 seconds on ice at 20% power output (pulse mode). Homogenates were centrifuged at 221.300×g for 50 min. The resulting high speed supernatants were then transferred to fresh tubes and were optionally further purified before the next step. A portion of the supernatant was neutralized with 10% 0.5 M Tris-HCl and this was used to quantify Aβtotal. […]
In this model at least 20% Aβ42 lowering compared to untreated animals would be advantageous.

[4] = system: Aβtotal; test: Screening for γ-secretase-modulating activity, Method 2: Aβtotal Alphalisa in supernatant of SKNBE2 cells carrying APP 695 wild type (Table 12c); format: cell-based; details: Homo sapiens, Method 2, Table 12c, incubated overnight
Description: (§4) Screening was carried out using SKNBE2 cells carrying the APP 695—wild type, grown in Dulbecco's Modified Eagle's Medium/Nutrient mixture F-12 (DMEM/NUT-mix F-12) (HAM) provided by Invitrogen (cat no. 10371-029) containing 5% Serum/Fe supplemented with 1% non-essential amino acids, 1-glutamine 2 mM, Hepes 15 mM, penicillin 50 U/ml (units/ml) en streptomycin 50 μg/ml. Cells were grown to near confluency.
(§5) The screening was performed using a modification of the assay as described in Citron et al (1997) Nature Medicine 3: 67. Briefly, cells were plated in a 384-well plate at 10^4 cells/well in Ultraculture (Lonza, BE12-725F) supplemented with 1% glutamine (Invitrogen, 25030-024), 1% non-essential amino acid (NEAA), penicillin 50 U/ml en streptomycin 50 μg/ml in the presence of test compound at different test concentrations. The cell/compound mixture was incubated overnight at 37° C., 5% CO2, The next day the media were assayed by two sandwich immuno-assays, for Aβ42 and Aβtotal.
(§6) Aβtotal and Aβ42 concentrations were quantified in the cell supernatant using the Aphalisa technology (Perkin Elmer). Alphalisa is a sandwich assay using biotinylated antibody attached to streptavidin coated donorbeads and antibody conjugated to acceptor beads. In the presence of antigen, the beads come into close proximity. The excitation of the donor beads provokes the release of singlet oxygen molecules that trigger a cascade of energy transfer in the acceptor beads, resulting in light emission. To quantify the amount of Aβ42 in the cell supernatant, monoclonal antibody specific to the C-terminus of Aβ42 (JRF/cAβ42/26) was coupled to the receptor beads and biotinylated antibody specific to the N-terminus of Aβ (JRF/AβN/25) was used to react with the donor beads. To quantify the amount of Aβtotal in the cell supernatant, monoclonal antibody specific to the N-terminus of Aβ (JRF/AβN/25) was coupled to the receptor beads and biotinylated antibody specific to the mid region of Aβ (biotinylated 4G8) was used to react with the donor beads.
(§7) To obtain the values reported in Table 12c, the data are calculated as percentage of the maximum amount of amyloid Beta 42 measured in the absence of the test compound. The sigmoidal dose response curves were analyzed using non-linear regression analysis with percentage of the control plotted against the log concentration of the compound. A 4-parameter equation was used to determine the IC50.

[5] = system: Aβ42; test: Screening for γ-secretase-modulating activity, Method 2: Aβ42 Alphalisa in supernatant of SKNBE2 cells carrying APP 695 wild type (Table 12c); format: cell-based; details: Homo sapiens, Method 2, Table 12c, incubated overnight
Description: as §4, §5, §6, §7

[6] = system: Aβ42; test: Demonstration of in vivo efficacy: Aβ42 lowering in brain after single oral dose (Table 13); details: mouse brain soluble fraction, ELISA, mean, compared to untreated animals
Source text: as §1, §2, §3
Mouse brains were resuspended in 10 volumes of 0.4% DEA (diethylamine)/50 mM NaCl pH 10 (for non-transgenic animals) or 0.1% 3-[3-cholamidopropyl)-dimethyl-ammonio]-1-propanesulfonate (CHAPS) in tris buffered saline (TBS) (for transgenic animals) containing protease inhibitors (Roche-11873580001 or 04693159001) per gram of tissue, e.g. for 0.158 g brain, add 1.58 ml of 0.4% DEA. All samples were sonicated for 30 seconds on ice at 20% power output (pulse mode). Homogenates were centrifuged at 221.300×g for 50 min. The resulting high speed supernatants were then transferred to fresh tubes and were optionally further purified before the next step. A portion of the supernatant was neutralized with 10% 0.5 M Tris-HCl and this was used to quantify Aβtotal.
The obtained supernatants were purified with Water Oasis HLB reverse phase columns (Waters Corp., Milford, Mass.) to remove non-specific immunoreactive material from the brain lysates prior subsequent Aβ detection. Using a vacuum manifold, all solutions were passed through the columns at a rate of approximately 1 ml per minute, so the vacuum pressure was adjusted accordingly throughout the procedure. Columns were preconditioned with 1 ml of 100% MeOH, before equilibration with 1 ml of H2O. Non-neutralized brain lysates were loaded onto the columns. The loaded samples were then washed twice with the first wash performed with 1 ml of 5% MeOH, and the second wash with 1 ml of 30% MeOH. Finally, the Aβ was eluted from the columns and into 100×30 mm glass tubes, with a solution of 90% MeOH with 2% NH4OH. […]

[7] = Method 1, Table 12a, SKNBE2 cells carrying APP 695 wild type, compounds 18 hours, ELISA, curve top and bottom fixed to 100 and 0, hill slope 1
[8] = Table 12b, Method 1, SKNBE2 cells carrying APP 695 wild type, cell supernatant ELISA, averaged IC50 values
[9] = Table 12b, Method 1, SKNBE2 cells carrying APP 695 wild type, cell supernatant ELISA, averaged IC50 values, percentage of control vs log concentration

SMILES: COc1cc(Nc2cccn3cc(-c4ccc(C#N)cc4)nc23)ccc1-n1cnc(C)c1 [Compound 31]
IC50 [1, 7]: > 5000 nM | IC50 [1, 8]: > 30200 nM | melting point: 193.4 °C | IC50 [2, 7]: 595 nM | IC50 [2, 9]: 589 nM

SMILES: COc1cc(Nc2cccn3cc(-c4ccccc4C)nc23)ccc1-n1cnc(C)n1 [Compound 70]
Aβtotal (% Ctrl)_Mean [3]: 99 % Ctrl | IC50 [4]: > 3020 nM | IC50 [5]: 68 nM | Aβ42 (% Ctrl)_Mean [6]: 84 % Ctrl

SMILES: Cc1ncn(-c2ccc(Nc3cccn4c(C)c(C)nc34)cc2)n1 [Compound 79]
IC50 [1, 8]: > 10000 nM | melting point: 230.6 °C | IC50 [2, 9]: 7410 nM

SMILES: COc1cc(Nc2cccn3cc(C)nc23)ccc1-n1cncn1 [Compound 80]
IC50 [1, 8]: > 10000 nM | melting point: 147.5 °C | IC50 [2, 9]: 3800 nM

SMILES: COCCc1c(-c2ccc(F)cc2)nc2c(Nc3ccc(-n4cnc(C)n4)c(OC)c3)cccn12 [Compound 127]
IC50 [4]: > 10000 nM | IC50 [1, 8]: > 10000 nM | IC50 [5]: 56 nM | melting point: 149.5 °C | IC50 [2, 9]: 89 nM

SMILES: COc1cc(Nc2cccn3c(OC)c(-c4ccc(F)cc4)nc23)ccc1-n1cnc(C)n1 [Compound 132]
IC50 [4]: 6920 nM | IC50 [5]: 251 nM | melting point: 165.1 °C

SMILES: COc1nc(Nc2cccn3c(C)c(-c4ccccc4Cl)nc23)ccc1-n1cnc(C)n1 [Compound 145]
IC50 [4]: > 10000 nM | IC50 [5]: 7 nM | melting point: 250.3 °C

SMILES: COc1nc(Nc2cc(C(C)C)nn3cc(-c4ccccc4Cl)nc23)ccc1-n1cnc(C)c1 [Compound 163]
IC50 [4]: 8320 nM | IC50 [5]: 166 nM | melting point: 179.3 °C

Other lines, results leading:

IC50 [1, 7]: > 1000 nM | IC50 [1, 8]: > 3020 nM | melting point: 124.2 °C | IC50 [2, 7]: 19 nM | IC50 [2, 9]: 19 nM
SMILES: COc1cccc(-c2nc3c(Nc4ccc(-n5ccnc5)c(OC)c4)cccn3c2C)c1 [Compound 35]

IC50 [1, 7]: > 3000 nM | IC50 [1, 8]: > 3020 nM | melting point: 224.6 °C | IC50 [2, 7]: 54 nM | IC50 [2, 9]: 51 nM
SMILES: COc1cc(Nc2cccn3c(C)c(-c4ccc(CC(C)C)cc4)nc23)ccc1-n1cnc(C)c1 [Compound 38]

IC50 [1, 7]: > 3000 nM | IC50 [1, 8]: > 3020 nM | melting point: 159.9 °C | IC50 [2, 7]: 29 nM | IC50 [2, 9]: 29 nM
SMILES: CCc1cn(-c2ccc(Nc3cccn4c(C)c(-c5cccc(OC)c5)nc34)cc2OC)cn1 [Compound 63]

IC50 [1, 7]: > 10000 nM | IC50 [1, 8]: > 10000 nM | melting point: 213.1 °C | IC50 [2, 7]: 6440 nM | IC50 [2, 9]: 9550 nM
SMILES: Cc1cn2cccc(Nc3ccc(-n4cnc(C)n4)cc3)c2n1 [Compound 78]

IC50 [4]: 6610 nM | IC50 [1, 8]: > 3020 nM | IC50 [5]: 32 nM | melting point: 127.5 °C | IC50 [2, 9]: 89 nM
SMILES: COc1cc(Nc2cccn3cc(-c4cc(C#N)ccc4C)nc23)ccc1-n1cnc(C)c1 [Compound 105]

IC50 [1, 8]: > 3020 nM | melting point: 210 °C | IC50 [2, 9]: 178 nM
SMILES: Cc1ccc(C(F)(F)F)cc1-c1cn2cccc(Nc3ccc(-n4ncnc4C)c(F)c3)c2n1 [Compound 130]
